The numbers were not newly measured in patent publication US7579360B2, “Triazolopyridine 11-beta hydroxysteroid dehydrogenase type I inhibitors” (Bristol-Myers Squibb Company, priority 2005, dated 2009), which cites them from elsewhere.

This data set addresses T1, 11beta-HSD1 (Homo sapiens, UniProt P28845).
T1 construct: host or cells: patients with type 2 diabetes (liver, in vivo)
To be noted: mildly overweight individuals with type 2 diabetes, seven days, versus placebo.

Structures are written as SMILES.

T1 sequence (P28845 whole entry): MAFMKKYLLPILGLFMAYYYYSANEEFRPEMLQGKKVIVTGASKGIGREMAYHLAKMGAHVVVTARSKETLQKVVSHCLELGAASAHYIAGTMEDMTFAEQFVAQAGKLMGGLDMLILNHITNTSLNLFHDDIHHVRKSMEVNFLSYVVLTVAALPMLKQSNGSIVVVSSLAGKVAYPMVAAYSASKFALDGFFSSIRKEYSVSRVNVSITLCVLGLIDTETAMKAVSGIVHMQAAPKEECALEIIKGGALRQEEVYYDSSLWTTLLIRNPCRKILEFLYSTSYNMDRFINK

With `CC1(C)[C@@H](OC(=O)CCC(=O)O)CC[C@]2(C)[C@H]3C(=O)C=C4[C@@H]5C[C@@](C)(C(=O)O)CC[C@]5(C)CC[C@@]4(C)[C@]3(C)CC[C@@H]12` [carbenoxolone], the hepatic glucose production entry is reported as “decrease”.
